Measurements published in patent US6610717B2, “Dihydropyridine derivatives” (Ajinomoto Co., Inc., priority 1999, dated 2003).

Tests used:
N-type calcium channel [1] = biological target: T1, N-type calcium channel (Homo sapiens, UniProt Q00975); test: Antagonistic activity on N-type calcium channel (fluorescence dye method), IMR-32 cells, changed procedure; assay type: cell-based; settings: Table 3, 60 mM KCl stimulation, calculated from the inhibition rates, read-out: N-type inhibition pIC50 (converted)
T1 construct: Human neuroblastoma cells IMR-32 were obtained from ATCC; host or cells: IMR-32 human neuroblastoma cells differentiated with dibutyl cAMP and bromodeoxyuridine
Procedure: (§1) Human neuroblastoma cells IMR-32 were obtained from ATCC (American Type Culture Collection). The medium used was a Phenol Red-free Eagle minimum essential medium (GIBCO) containing earle's salts supplement, 2 mM of L-glutamine (GIBCO), 1 mM of sodium pyruvate (pH 6.5) (GIBCO), antibiotic/antimicotic mixture (GIBCO) and 10% fetal calf serum (Cell Culture Technologies). 3 ml of 1×10^5/ml IMR-32 cells were spread on a glass dish (Iwaki Glass Co., Ltd.) having a diameter of 35 mm which was treated with poly-D-lysin (SIGMA) and collagen (COLLAGEN VITROGEN 100, Collagen Colo.). After the culture for 2 days, 1 mM (final concentration) of dibutyl cAMP and 2.5 μM of bromodeoxyuridine (SIGMA) were added. After the culture for additional 10 to 14 days, the cells were subjected to the activity determination. The medium for IMR-32 cells thus prepared was replaced with 1 ml of Phenol Red-free Eagle minimum essential medium (GIBCO) containing 1 ml of 10 μM fura-2/AM (Dojin Kagaku, Co.) and earle's salts supplement, and the incubation was conducted at 25° C. for 1 hour.
Then the medium was replaced with Phenol Red-free Eagle minimum essential medium (GIBCO) containing earle's salts supplement, from which fura-2/AM had been removed. After the incubation at 37° C. for 1 hour, the medium was replaced with a recording medium (20 mM of HEPES-KOH, 115 mM of NaCl, 5.4 mM of KCl, 0.8 mM of MgCl2, 1.8 mM of CaCl2 and 13.8 mM of D-glucose). Antagonistic activity on N-type calcium channel was determined and analyzed by using a fluorescence microscope (Nikon Corporation) and an image analysis device ARGUS 50 (Hamamatsu Photonics). In particular, a recording medium (20 mM of HEPES-KOH, 115 mM of NaCl, 5.4 mM of KCl, 0.8 mM of MgCl2, 1.8 mM of CaCl2 and 13.8 mM of D-glucose) containing 1 μM of Nifedipine was given to the cells by reflux by a Y-tube method. Then a stimulating agent containing 60 mM of potassium chloride was rapidly given by the Y-tube method. Thereafter stimulating agents containing 60 mM of potassium chloride and 0.1, 1 or 10 μM of test compound were successively rapidly given by the Y-tube method to determine the antagonistic activity on the channel. Finally, a stimulating agent containing 60 mM of potassium chloride and 1 μM of omega conotoxin GVIA (Peptide institute, inc.) was rapidly given by the Y-tube method to realize a condition of 100% inhibition of N-type calcium channel.
The same procedure as that of the above-described tests was repeated except for the following changes: 60 mM of potassium chloride-containing stimulating agent was rapidly given by the Y-tube method while the calcium concentration change in the cells was examined in terms of N-type calcium channel activity. […] A change in calcium concentration in the cells was determined.

N-type calcium channel [2] = biological target: T1, N-type calcium channel; test: Antagonistic activity on N-type calcium channel (fluorescence dye method), IMR-32 cells, in presence of 1 μM Nifedipine; assay type: cell-based; settings: Table 2, 60 mM KCl stimulation, fura-2, read-out: N-type inhibition pIC50 (converted)
Procedure: as §1, with “The medium for IMR-32 cells thus prepared was replaced with 1 ml of Phenol Red-free Eagle minimum essential medium (GIBCO) containing 1 ml of 10 μM fura-2/AM (Dojin Kagaku, Co.) and earle's salts supplement, and the incubation was conducted at 25° C. for 1 hour.” left out
Then the medium was replaced with Phenol Red-free Eagle minimum essential medium (GIBCO) containing earle's salts supplement, from which fura-2/AM had been removed. […] Antagonistic activity on N-type calcium channel was determined and analyzed by using a fluorescence microscope (Nikon Corporation) and an image analysis device ARGUS 50 (Hamamatsu Photonics). […]

T1 sequence (Q00975 whole entry): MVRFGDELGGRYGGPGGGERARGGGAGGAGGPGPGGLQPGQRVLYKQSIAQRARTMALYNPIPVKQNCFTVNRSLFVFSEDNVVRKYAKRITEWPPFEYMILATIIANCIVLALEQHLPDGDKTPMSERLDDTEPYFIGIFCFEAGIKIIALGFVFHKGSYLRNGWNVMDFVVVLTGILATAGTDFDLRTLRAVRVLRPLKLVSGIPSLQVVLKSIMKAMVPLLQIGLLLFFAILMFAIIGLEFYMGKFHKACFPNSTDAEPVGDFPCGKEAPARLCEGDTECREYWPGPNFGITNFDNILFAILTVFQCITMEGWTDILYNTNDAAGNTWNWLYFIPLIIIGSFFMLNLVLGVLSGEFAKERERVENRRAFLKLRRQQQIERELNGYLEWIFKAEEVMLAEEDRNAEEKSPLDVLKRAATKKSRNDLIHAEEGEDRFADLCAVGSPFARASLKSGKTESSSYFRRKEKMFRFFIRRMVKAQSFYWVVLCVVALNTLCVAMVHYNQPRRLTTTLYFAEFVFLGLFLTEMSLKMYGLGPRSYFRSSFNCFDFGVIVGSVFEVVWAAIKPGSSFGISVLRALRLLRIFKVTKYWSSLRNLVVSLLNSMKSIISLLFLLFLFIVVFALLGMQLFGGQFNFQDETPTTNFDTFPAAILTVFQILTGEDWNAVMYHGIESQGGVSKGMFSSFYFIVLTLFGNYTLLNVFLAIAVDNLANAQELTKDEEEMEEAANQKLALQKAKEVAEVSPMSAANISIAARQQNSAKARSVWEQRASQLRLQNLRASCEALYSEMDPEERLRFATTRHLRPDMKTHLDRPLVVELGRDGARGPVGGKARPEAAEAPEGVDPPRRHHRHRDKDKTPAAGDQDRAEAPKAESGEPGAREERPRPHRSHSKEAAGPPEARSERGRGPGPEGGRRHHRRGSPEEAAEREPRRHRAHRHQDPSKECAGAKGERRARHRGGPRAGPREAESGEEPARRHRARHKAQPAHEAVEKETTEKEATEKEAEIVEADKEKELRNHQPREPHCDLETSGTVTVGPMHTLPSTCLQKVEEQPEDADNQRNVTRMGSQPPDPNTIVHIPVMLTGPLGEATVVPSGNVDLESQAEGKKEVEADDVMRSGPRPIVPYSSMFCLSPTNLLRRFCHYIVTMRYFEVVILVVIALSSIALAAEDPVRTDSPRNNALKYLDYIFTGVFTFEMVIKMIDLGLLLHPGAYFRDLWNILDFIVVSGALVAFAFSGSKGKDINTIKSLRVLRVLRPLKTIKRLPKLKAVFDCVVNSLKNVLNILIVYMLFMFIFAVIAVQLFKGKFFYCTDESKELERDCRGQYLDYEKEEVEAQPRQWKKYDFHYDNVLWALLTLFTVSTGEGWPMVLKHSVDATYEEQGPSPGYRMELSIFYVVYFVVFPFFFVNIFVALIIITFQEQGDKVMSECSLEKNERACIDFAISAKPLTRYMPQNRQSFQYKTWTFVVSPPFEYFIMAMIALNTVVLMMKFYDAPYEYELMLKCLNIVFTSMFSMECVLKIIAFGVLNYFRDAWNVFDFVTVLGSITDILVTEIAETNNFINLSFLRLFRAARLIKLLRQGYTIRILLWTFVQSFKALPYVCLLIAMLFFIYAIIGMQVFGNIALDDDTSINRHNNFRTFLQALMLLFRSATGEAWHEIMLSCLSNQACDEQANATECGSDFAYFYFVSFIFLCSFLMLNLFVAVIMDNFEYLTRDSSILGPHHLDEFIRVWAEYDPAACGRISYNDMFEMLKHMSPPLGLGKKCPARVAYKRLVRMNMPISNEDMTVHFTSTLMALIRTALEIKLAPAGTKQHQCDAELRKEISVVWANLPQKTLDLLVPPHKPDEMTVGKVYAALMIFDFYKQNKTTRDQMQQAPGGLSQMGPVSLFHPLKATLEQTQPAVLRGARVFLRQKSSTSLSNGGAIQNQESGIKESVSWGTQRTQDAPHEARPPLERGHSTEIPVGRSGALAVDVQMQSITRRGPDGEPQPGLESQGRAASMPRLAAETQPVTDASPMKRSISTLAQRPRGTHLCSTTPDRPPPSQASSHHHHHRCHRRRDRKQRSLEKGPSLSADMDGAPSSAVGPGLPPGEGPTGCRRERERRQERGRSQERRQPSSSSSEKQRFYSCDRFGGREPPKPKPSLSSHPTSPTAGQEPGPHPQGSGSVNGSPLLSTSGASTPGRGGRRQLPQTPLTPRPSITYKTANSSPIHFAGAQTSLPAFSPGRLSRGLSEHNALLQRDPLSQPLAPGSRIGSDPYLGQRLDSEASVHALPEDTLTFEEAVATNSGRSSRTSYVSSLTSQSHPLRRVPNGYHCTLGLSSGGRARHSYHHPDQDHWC
T1 sequence (P54289 25-956 partner limits assumed): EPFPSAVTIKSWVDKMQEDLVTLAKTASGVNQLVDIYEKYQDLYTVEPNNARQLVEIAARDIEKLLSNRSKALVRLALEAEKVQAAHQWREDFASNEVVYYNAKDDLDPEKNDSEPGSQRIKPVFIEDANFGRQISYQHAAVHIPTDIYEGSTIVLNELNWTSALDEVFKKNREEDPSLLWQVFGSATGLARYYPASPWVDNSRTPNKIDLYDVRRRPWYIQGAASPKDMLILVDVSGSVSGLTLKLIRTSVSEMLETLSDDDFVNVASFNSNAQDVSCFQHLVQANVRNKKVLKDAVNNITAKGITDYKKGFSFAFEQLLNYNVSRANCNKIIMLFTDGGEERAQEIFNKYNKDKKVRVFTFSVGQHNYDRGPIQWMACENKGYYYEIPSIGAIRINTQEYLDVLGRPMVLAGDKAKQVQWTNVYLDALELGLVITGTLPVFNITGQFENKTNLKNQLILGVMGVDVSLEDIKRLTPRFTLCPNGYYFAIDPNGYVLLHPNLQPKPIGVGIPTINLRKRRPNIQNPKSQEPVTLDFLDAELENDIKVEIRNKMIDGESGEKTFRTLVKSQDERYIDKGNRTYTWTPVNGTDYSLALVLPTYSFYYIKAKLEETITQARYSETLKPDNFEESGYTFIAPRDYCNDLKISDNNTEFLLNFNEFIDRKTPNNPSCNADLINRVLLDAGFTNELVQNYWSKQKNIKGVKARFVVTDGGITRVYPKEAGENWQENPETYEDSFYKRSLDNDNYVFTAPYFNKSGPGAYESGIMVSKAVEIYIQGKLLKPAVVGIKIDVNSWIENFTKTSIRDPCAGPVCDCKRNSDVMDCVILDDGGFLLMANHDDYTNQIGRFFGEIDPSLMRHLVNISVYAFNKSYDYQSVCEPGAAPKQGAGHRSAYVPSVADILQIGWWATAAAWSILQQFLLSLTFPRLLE
T1 sequence (P54289 957-1103 partner limits assumed): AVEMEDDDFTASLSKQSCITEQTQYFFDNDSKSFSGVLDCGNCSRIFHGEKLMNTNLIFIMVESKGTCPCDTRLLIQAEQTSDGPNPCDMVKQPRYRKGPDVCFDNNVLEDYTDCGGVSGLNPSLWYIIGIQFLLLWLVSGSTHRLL
T1 sequence (P54284 whole entry partner): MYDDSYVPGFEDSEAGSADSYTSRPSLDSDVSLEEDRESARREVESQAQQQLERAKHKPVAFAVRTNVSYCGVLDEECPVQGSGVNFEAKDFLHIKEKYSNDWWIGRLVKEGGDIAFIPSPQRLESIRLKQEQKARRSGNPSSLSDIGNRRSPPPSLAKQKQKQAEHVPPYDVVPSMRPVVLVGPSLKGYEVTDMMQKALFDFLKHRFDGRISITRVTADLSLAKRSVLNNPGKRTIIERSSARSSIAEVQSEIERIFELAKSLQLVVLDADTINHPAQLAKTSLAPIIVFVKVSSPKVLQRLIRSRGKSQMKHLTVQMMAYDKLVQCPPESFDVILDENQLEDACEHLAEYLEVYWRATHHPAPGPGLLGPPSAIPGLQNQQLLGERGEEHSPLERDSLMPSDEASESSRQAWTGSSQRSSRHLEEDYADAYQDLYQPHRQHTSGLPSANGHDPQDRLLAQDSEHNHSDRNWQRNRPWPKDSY

IC50 (N-type calcium channel [1]) [nM] | IC50 (N-type calcium channel [2]) [nM] | Compound
2000 |  | COCC1=C(C(=O)OC)C(c2cccc(Cl)c2)C(C(=O)NCCC(c2ccccc2)c2ccccc2)=C(COCCN)N1 (stereo not drawn) [Example 11, Methyl 6-(2-aminoethoxy)methyl-4-(3-chlorophenyl)-5-(3,3-diphenylpropylcarbamoyl)-2-methoxymethyl-1,4-dihydropyridine-3-carboxylate]
2510 |  | CC1=C(C(=O)O)C(c2cccc(Cl)c2)C(C(=O)NCCC(c2ccccc2)c2ccccc2)=C(COCCc2ccccn2)N1 (stereo not drawn) [Example 6, 4-(3-chlorophenyl)-5-(3,3-diphenylpropylcarbamoyl)-2-methyl-6-(2-(pyridine-2-yl)ethoxy)methyl-1,4-dihydropyridine-3-carboxylic acid]
2510 | 2000 | CC1=C(C(=O)O)C(c2cccc(Cl)c2)C(C(=O)NC/C=C/c2ccccc2)=C(COCCc2ccccc2)N1 (stereo not drawn) [Example 3, 4-(3-chlorophenyl)-2-methyl-6-(2-phenylethoxymethyl)-5-(3-phenyl-2-propene-1-ylcarbamoyl)-1,4-dihydro-pyridine-3-carboxylic acid]
794 | 398 | CC1=C(C(=O)O)C(c2cccc(Cl)c2)C(C(=O)NC/C=C/c2ccccc2)=C(COCCC2CCCCC2)N1 (stereo not drawn) [Example 4, 4-(3-chlorophenyl)-6-(2-cyclohexylethoxymethyl)-2-methyl-5-(3-phenyl-2-propene-1-ylcarbamoyl)-1,4-dihydropyridine-3-carboxylic acid]
